The source of these data is patent US10082510B2, “SRC-2 use as metabolic biomarker for diagnosis and treatment of metastatic prostate cancer” (Baylor College of Medicine, priority 2014, dated 2018).

Common to all, as to assay type: cell-based, human
Test [1] concerns SRC-2 protein in C4-2 cells. Put plainly: Western blot of SRC-2 protein level after kinase inhibitor treatment. The following applies: for SRC-2 protein level compared to DMSO-treated cells: Torin 250 nM, 12 hours. As for the experimental part: FIG. 4—Glutamine stimulation induces mTORC1-dependent SRC-2 transcriptional activity. (A) Western blot analysis of FASN, SCD, SRC-2 and actin in C4-2 stable cells—shNT, sh18 and sh19 grown in high glucose (11 mM)/low glutamine (0.2 mM) or low glucose (5 mM)/high glutamine (2 mM). Actin was used as a control to normalize the protein loading. Semiquantitative levels of each band were analyzed by densitometry using UVP Vision Works LS software and relative values (compared to shNT) normalized to actin are indicated numerically under each lane. (B) C4-2 cells were cultured in presence of high glucose (11 mM)/low glutamine (0.2 mM) or low glucose (5 mM)/high glutamine (2 mM) and then treated with kinase inhibitors: BEZ-235 (1 uM); Rapamycin (100 nM); Torin (250 nM); and Wortmannin (250 nM). Western blot analyses were performed to measure the stability of SRC-2 protein. Semi-quantitative levels of each band were analyzed by densitometry using UVP Vision Works LS software and relative values (compared to DMSO) normalized to actin are indicated numerically under each lane. (C) Immunoprecipitation of HA-SRC-2 followed by Western immunoblot to detect the phosphorylation status of SRC-2 using phospho-serine/threonine antibody. Input lysates were obtained from C4-2 cells expressing Adv.GFP or Adv. SRC-2, and subsequently stimulated with increasing concentration of glutamine—[…] followed by treatment with DMSO or mTORC1 inhibitor-Torin (250 nM). Actin was used to normalize the input loading. Semiquantitative levels of phospho-SRC-2 were analyzed by densitometry using UVP Vision Works LS software and relative values (compared to lane 2) normalized to actin are indicated numerically under each lane. (D) PC-3 cells expressing either Adv.GFP or Adv. SRC-2 were transfected with FASN-luc construct and stimulated with high glucose (11 mM)/low glutamine (0.2 mM) or high glutamine (2 mM)/low glucose (5 mM) followed by treatment with DMSO or Torin (250 nM). Lucifrease assay was then performed to measure the FASN promoter activity and data were normalized to total protein. […]
Background: In western blotting, separated proteins are transferred to a membrane and probed.

Test [2] relates to C4-2 and PC-3 cells. Put plainly: Cell growth assay (Cellglo). The note with it: C4-2 and PC-3 shNT cells; BPTES 1 μM, 4 days. The procedure:
FIG. 6—SRC-2 is essential for prostate cancer cell survival. (A) Representative images depicting the growth of C4-2 stable cells—shNT, sh18 and sh19 in soft agar assay two weeks after plating. (B) Quantification of the total number of C4-2 stable cell colonies that survived after two weeks. (C) H&E stained sections of mouse lungs from experimental lung metastasis assay. Nude mice were injected with PC-3 cells stably expressing shNT, sh18 and sh19 via tail vein (n=7), and growth and survival of the cells in mouse lungs were analyzed after 5 weeks. (D) Quantification of Ki67 (antibody epitope reacts with human Ki67 protein) stained cells in the mouse lung sections from shNT, sh18 and sh19-injected animals. Refer Supplementary FIG. 14C. (E) Western blot analysis showing the expression levels of SRC-2, FASN, SCD and actin in C4-2 stable cells—shNT and sh19, and re-expression of SRC-2 in sh19 cells infected with Adv. SRC-2. Actin was used to normalize the protein loading. […]
Cells were seeded in 96-well plates in complete medium, and after the cells attached to the bottom surface they were incubated in nutrient-stressed medium. The cell growth was measured using Cellglo kit (Promega) according to manufacturer's instructions. […]

Test [3] relates to C4-2 and PC-3 cells. Put plainly: Oxygen consumption rate (Seahorse XF24). The following applies: C4-2 and PC-3 stable cells; oligomycin 25-40 min time frame, FCCP 45-65 min time frame.
Procedure: (A) Real-time measurement of basal and maximal oxygen consumption rate (OCR) in C4-2 stable cells—shNT, sh18 and sh19. (B, C) Basal and maximal OCR in C4-2 stable cells—shNT, sh18 and sh19 were measured in DMSO control (B) or FCCP-treated (C) cells cultured in presence of high glucose (11 mM)/low glutamine (0.2 mM) or low glucose (5 mM)/high glutamine (2 mM). […] Data are graphed as the mean±s.e.m. *P<0.05, **P<0.001 by Student's t test.
(A) Real-time measurement of basal and maximal oxygen consumption rate (OCR) in PC-3 stable cells—shNT, sh18, and sh19. (B, C) Basal and maximal OCR in PC-3 stable cells—shNT, sh18, and sh19 were measured in DMSO control or FCCP-treated cells cultured in presence of high glucose (11 mM)/low glutamine (0.2 mM) or low glucose (5 mM)/high glutamine (2 mM). […] Data are graphed as the mean±s.e.m. *P<0.05, **P<0.001 by Student's t test.
The oxygen consumption rate (OCR) was measured using a Seahorse Bioscience XF24 Extracellular Flux Analyzer according to manufacturer's protocol. Briefly, cells were seeded in triplicates at equal densities (25,000 cells per well) into XF24 tissue culture plates. […] Oxygen consumption was measured under basal conditions (DMSO), oligomycin and mitochondrial uncoupler trifluoromethoxy carbonyl cyanide phenyl 59ydrazine (FCCP) (2 mM) using the mito-stress kit (Seahorse Bioscience). […]
The test system of another test is SRC-2 mRNA in C4-2 cells. Put plainly: Quantitative real time PCR of SRC-2 messenger after kinase inhibitor treatment. The note with it: Torin 250 nM. The procedure: FIG. 13—Glutamine stimulation activates SRC-2 transcriptional functions in an mTORC1 dependent manner. (A) Quantitative real time PCR analysis of FASN, SCD and SRC-2 in C4-2 cells were treated with siGFP (control) or siSRC-2 and cultured in nutrient stressed conditions—high glucose (11 mM)/low glutamine (0.2 mM) or low glucose (5 mM)/high glutamine (2 mM). (B) Quantitative real time PCR analysis of SRC-2 in C4-2 cells expressing siGFP (control) or siSRC-2 and then treated with BEZ-235 (1 uM); Rapamycin (100 nM); Torin (250 nM); and Wortmannin (250 nM). (C) Western blot analysis showing the expression of phospho-S6K (p-S6K), phospho-4EBP1 (p-4EBP1) and actin in C4-2 cells stimulated with increasing concentration of glutamine followed by treatment with DMSO or mTORC1 inhibitor-Torin. Actin was used to normalize the protein loading.
Total mRNA was isolated from prostate cancer cells, tissues and tumors using the RNeasy Kit (QIAGEN). Reverse transcription was carried out using Superscript VILO cDNA synthesis kit (Invitrogen, CA) according to the manufacturer's instructions. For gene expression analysis, qPCR was performed using the Taqman system (Roche) with sequence-specific primers and the Universal Probe Library (Roche). […] Data was analyzed using the comparative Ct method (ΔΔCt). […] Data obtained was analyzed using RT^2 Profiler™ PCR Array Data Analysis software (SA Bioscineces, CA). […]
A general note: In qPCR the cycle at which signal appears reflects the starting amount.

Test [4] deals with SRC-2 serine/threonine phosphorylation in C4-2 cells. Put plainly: Immunoprecipitation of HA-SRC-2 and phospho-serine/threonine immunoblot. The note with it: C4-2 cells expressing Adv. SRC-2 (HA-SRC-2), glutamine stimulated; Torin 250 nM, 4 hours pre-treatment. As for the experimental part:
(§1) FIG. 4—Glutamine stimulation induces mTORC1-dependent SRC-2 transcriptional activity. (A) Western blot analysis of FASN, SCD, SRC-2 and actin in C4-2 stable cells—shNT, sh18 and sh19 grown in high glucose (11 mM)/low glutamine (0.2 mM) or low glucose (5 mM)/high glutamine (2 mM). Actin was used as a control to normalize the protein loading. Semiquantitative levels of each band were analyzed by densitometry using UVP Vision Works LS software and relative values (compared to shNT) normalized to actin are indicated numerically under each lane. (B) C4-2 cells were cultured in presence of high glucose (11 mM)/low glutamine (0.2 mM) or low glucose (5 mM)/high glutamine (2 mM) and then treated with kinase inhibitors: BEZ-235 (1 uM); Rapamycin (100 nM); Torin (250 nM); and Wortmannin (250 nM). Western blot analyses were performed to measure the stability of SRC-2 protein. Semi-quantitative levels of each band were analyzed by densitometry using UVP Vision Works LS software and relative values (compared to DMSO) normalized to actin are indicated numerically under each lane. […] Semiquantitative levels of phospho-SRC-2 were analyzed by densitometry using UVP Vision Works LS software and relative values (compared to lane 2) normalized to actin are indicated numerically under each lane. […]

Test [5] deals with SRC-2 protein stability in C4-2 cells. Put plainly: Cycloheximide protein stability assay. The following applies: high glutamine (2.0 mM), cycloheximide 0.5 mM, Torin 250 nM. As for the experimental part:
FIG. 14—Glutamine-dependent mTORC1 phosphorylation controls SRC-2 protein stability. (A) C4-2 cells were cultured in presence of low glutamine (0.2 mM) and high glutamine (2.0 mM) followed by treatment with cycloheximide (0.5 mM) for indicated time points. Western blot showing the total-level of SRC-2 and actin was used as a loading control. (B) C4-2 cells were cultured in presence of high glutamine (2.0 mM) followed by either treatment with DMSO and Torin. Cycloheximide (0.5 mM) was then added to the cells for indicated time points. Western blot showing the total-level of SRC-2 and actin was used as a loading control.
SRC-2 protein stability was studied by cycloheximide treatment experiments in C4-2 cells for different time points as described previously (Li C, Jo A, et al, 2011). C4-2 cells were cultured in low glutamine (0.2 mM) or high glutamine (2.0 mM) followed by treatment with cycloheximide (0.5 mM). For Torin treatment, C4-2 cells cultured in high glutamine were either treated with DMSO (vehicle-control) or Torin (250 nM) prior to cyclohexamide treatments. Cells were lysed followed by Western immunoblotting.

Test [6] deals with SRC-2 driven FASN-promoter activity in PC-3 cells. Put plainly: FASN-luc luciferase reporter assay. The note with it: PC-3 cells expressing Adv. SRC-2, high glutamine (2 mM)/low glucose (5 mM); Torin 250 nM. As for the experimental part:
as §1, with “(B) C4-2 cells were cultured in presence of high glucose (11 mM)/low glutamine (0.2 mM) or low glucose (5 mM)/high glutamine (2 mM) and then treated with kinase inhibitors: BEZ-235 (1 uM); Rapamycin (100 nM); Torin (250 nM); and Wortmannin (250 nM). Western blot analyses were performed to measure the stability of SRC-2 protein.” left out
Luciferase assays were performed using Luciferase Reporter Assay (Promega) and a Berthold 96 well plate reader. […]
Luciferase promoter constructs were obtained from following sources: FASN-Addgene, SCD-Switchgear genomics and ZIP1—Peter Makhov (Fox Chase Cancer Center). […] Cells were harvested two days after transfection and luciferase assay performed using a Luciferase Reporter Assay (Promega) and a Berthold 96 well plate reader. […]

Test [7] deals with recruitment of SRC-2 to the FASN and SCD promoters in C4-2 cells. Put plainly: ChIP of SRC-2 on FASN and SCD promoters. The note with it: glutamine stimulation (2 mM), Torin 250 nM.

`Cn1c(=O)n(-c2ccc(C(C)(C)C#N)cc2)c2c3cc(-c4cnc5ccccc5c4)ccc3ncc21` [BEZ-235]: the SRC-2 protein stability entry in test [1] (either culture condition (high glucose/low glutamine or low glucose/high glutamine), BEZ-235 1 uM) is given as “failed to show any effect”.

Regarding `O=C(Cc1ccccc1)Nc1nnc(CCSCCc2nnc(NC(=O)Cc3ccccc3)s2)s1` [BPTES], the “Prostate cancer cell growth compared to DMSO” value in the test with C4-2 and PC-3 cells [2] is reported as “robust decrease”.

Regarding `N#CC(C#N)=NNc1ccc(OC(F)(F)F)cc1` [FCCP, Carbonyl cyanide 4-(trifluoromethoxy)phenylhydrazone], in the test with C4-2 and PC-3 cells [3], the “Oxygen consumption rate (OCR)” value was “dramatically enhanced”.

`CCC(=O)N1CCN(c2ccc(-n3c(=O)ccc4cnc5ccc(-c6cnc7ccccc7c6)cc5c43)cc2C(F)(F)F)CC1` [Torin]: the “SRC-2 protein level compared to DMSO-treated cells” value is listed as “down-regulated” in test [1] (glutamine-stimulated (low glucose 5 mM/high glutamine 2 mM), Rapamycin 100 nM) and “not observed” in test [1] (high glucose (11 mM)/low glutamine (0.2 mM), Wortmannin 250 nM). In addition, in the test with SRC-2 mRNA in C4-2 cells, the SRC-2 messenger expression result was “without any appreciable change”. Besides, the “Glutamine-induced SRC-2-serine/threonine phosphorylation” value in test [4] was “reversed”. Also, the “Glutamine-increased SRC-2 protein stability (cycloheximide time course)” value in test [5] is “completely suppressed”. For the same compound, the “Glutamine dependent SRC-2 driven FASN-promoter activity” value in test [6] is “significantly blocked”. For the same compound, in test [7], the “Glutamine dependent recruitment of SRC-2 to the FASN and SCD promoters” value is listed as “significantly blocked”.

Regarding `CC[C@H]1/C=C/C=C/C[C@@H](C)[C@H](O)[C@@](C)(O)C(=O)[C@@H](C)[C@H](O)[C@@H](C)C(=O)[C@@H](C)[C@H](O)[C@@H](C)/C=C/C(=O)O[C@@H]2[C@H](C)[C@H](CC1)O[C@]1(CC[C@H](C)[C@H](C[C@@H](C)O)O1)[C@H]2C` [oligomycin], the “Oxygen consumption rate (OCR)” value with C4-2 and PC-3 cells [3] was “decreased the oxygen consumption”.
